Test results from PMC10560236, “A protein kinase C α and β inhibitor blunts hyperphagia to halt renal function decline and reduces adiposity in a rat model of obesity-driven type 2 diabetes” (Scientific Reports, 2023).

What was measured:
[1] = tested on: intact glomeruli isolated from SD rats; experiment: PMA-luminol ROS assay in intact glomeruli; format: cell-based; conditions: intact SD rat glomeruli, 16 μM PMA, luminol luminescence; read-out: IC50, PMA-induced ROS production (change in velocity)
Experimental: For the phorbol 12-myristate 13-acetate (PMA)-luminol assay, glomeruli isolated from PBS-perfused kidneys were diluted in an HBSS solution containing 1 mM luminol, 0.1 M HEPES, and 0.1% fatty-acid free BSA. Approximately 3000 glomeruli were plated per well in a 96-well white OPTI-plate (Perkin Elmer 6005290). The reaction was started by the addition of PMA to a final concentration of 16 μM in the absence or presence of increasing Cmpd 1. Luminol luminescence was read on an Envision plate reader in kinetic read mode.

PKCζ = molecular target: T1, PKCζ (Homo sapiens, UniProt Q05513); experiment: Z'-Lyte recombinant enzyme assay, PKCζ; format: biochemical
T1 sequence (Q05513 1-592): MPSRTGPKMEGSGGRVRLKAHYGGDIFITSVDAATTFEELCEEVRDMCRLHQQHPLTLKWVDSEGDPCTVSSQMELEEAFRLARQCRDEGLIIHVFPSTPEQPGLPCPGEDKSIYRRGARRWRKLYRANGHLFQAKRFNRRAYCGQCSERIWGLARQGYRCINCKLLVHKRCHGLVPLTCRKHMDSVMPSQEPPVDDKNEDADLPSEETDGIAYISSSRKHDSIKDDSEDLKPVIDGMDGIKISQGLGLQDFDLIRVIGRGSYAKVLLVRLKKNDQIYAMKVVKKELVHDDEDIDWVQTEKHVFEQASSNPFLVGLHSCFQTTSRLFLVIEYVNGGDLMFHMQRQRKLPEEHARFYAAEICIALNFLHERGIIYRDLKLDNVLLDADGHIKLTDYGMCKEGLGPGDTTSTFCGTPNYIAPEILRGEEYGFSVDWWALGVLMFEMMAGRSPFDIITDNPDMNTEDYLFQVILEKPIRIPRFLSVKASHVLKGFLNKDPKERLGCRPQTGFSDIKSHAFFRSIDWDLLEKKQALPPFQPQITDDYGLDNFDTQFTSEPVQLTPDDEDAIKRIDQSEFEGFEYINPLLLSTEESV
Experimental: Half maximal inhibitory concentrations of Cmpd 1 were determined by Z’-Lyte biochemical assays (Life Technologies SelectScreen™ Kinase Profiling Services, Thermo Fisher Scientific). Kinome selectivity was determined at 1 μM Cmpd 1 concentration against a panel of 119 kinases. The original kinome tree in Fig. 1b was taken from Ref.[68].

- IC50 [1]: 76 nM
- IC50 (PKCζ): > 10000 nM
SMILES: Cc1ncc(F)c(Nc2n[nH]c3c2CN(C(=O)N2C[C@@H](C)N(CC4CCOCC4)C[C@@H]2C)C3(C)C)n1 [Cmpd 1, 5-[(2S,5R)-2,5-dimethyl-4-(tetrahydro-2H-pyran-4-ylmethyl)piperazin-l-yl]carbonyl-N-(5-fluoro-2-methylpyrimidin-4-yl)-6,6-dimethyl-1,4,5,6-tetrahydropyrrolo[3,4-c]pyrazol-3-amine]
